We go through four compounds from PMC8780828 (Viruses, 2021).

Structures are written as SMILES. Like-named read-outs stand apart in the source and are kept apart here. A value given as a limit tells only on which side of the number the result lay.

The subject of data set [1] is pseudovirus NL4-3ΔEnv-NanoLuc/SARS-CoV-2. In words: organism not typed. It is filed as cell-based. The note with it: HT-1080; n=3.
Data set [2] has the same test system. In words: organism not typed. It is filed as cell-based. Particulars: A549-ACE2; n=3.
Data set [3] concerns pseudovirus NL4-3ΔEnv-NanoLuc/SARS-CoV. Description: microbe, parasite or virus in culture. It is filed as cell-based. Particulars: Severe acute respiratory syndrome coronavirus, HT-1080.
The test system is the same in data set [4]. Description: microbe, parasite or virus in culture. It is filed as cell-based. The note with it: Severe acute respiratory syndrome coronavirus, A549-ACE2.
The subject of data set [5] is pseudovirus NL4-3ΔEnv-NanoLuc/MERS-CoV. In words: microbe, parasite or virus in culture. It is filed as cell-based. The note with it: Middle East respiratory syndrome-related coronavirus, Huh-7.
The test system is the same in data set [6]. Description: microbe, parasite or virus in culture. Particulars: Middle East respiratory syndrome-related coronavirus, MRC5. It is filed as cell-based.
The subject of data set [7] is control pseudovirus NL4-3.Luc.R-E-/A-MLV. Description: Control pseudovirus A-MLV assay in 293T/ACE2 cells. The note with it: NL43, 293T/ACE2. It is filed as cell-based, amphotropic murine leukemia virus (A-MLV).
For data set [8], the system named is NL4-3ΔEnv-NanoLuc/SARS-CoV-2. In words: organism not typed. It is filed as cell-based.
Data set [9] addresses SARS-CoV-2 spike S1 subunit protein (Severe acute respiratory syndrome coronavirus 2, UniProt P0DTC2). It is filed as binding.
The test system of data set [10] is pseudovirus NL4-3ΔEnv-NanoLuc/SARS-CoV-2. In words: SARS-CoV-2 pseudovirus assay with pre-treated 293T/ACE2 cells. It is filed as cell-based. Particulars: 293T/ACE2 cells pre-treated with compound 30 min before infection.
In data set [11] the test system is SARS-CoV-2 (US_WA-1/2020). It is filed as cell-based.
The target of the next data set is β-lactamase. It is filed as biochemical.
The next data set deals with Trypsin. It is filed as biochemical.
Data set [12] has as its target malate dehydrogenase (MDH). It is filed as biochemical.
The conditions of data set [13]: rat, in vivo.
Another data set can be described thus: in vivo. The note with it: female, Sprague Dawley, rat; for MRT inf: MRT0-inf_obs.
Data set [14] has as its system SARS-CoV-2. Particulars: A549-hACE2 cells; NLuc-based assay; cited from earlier work.
The test system of data set [15] is SARS-CoV-2. Particulars: Vero E6 cells; NLuc-based assay; cited from earlier work.
In a further data set the target is FLuc (Photinus pyralis, UniProt P08659). It is filed as biochemical.
FLuc, sequence (P08659 whole entry): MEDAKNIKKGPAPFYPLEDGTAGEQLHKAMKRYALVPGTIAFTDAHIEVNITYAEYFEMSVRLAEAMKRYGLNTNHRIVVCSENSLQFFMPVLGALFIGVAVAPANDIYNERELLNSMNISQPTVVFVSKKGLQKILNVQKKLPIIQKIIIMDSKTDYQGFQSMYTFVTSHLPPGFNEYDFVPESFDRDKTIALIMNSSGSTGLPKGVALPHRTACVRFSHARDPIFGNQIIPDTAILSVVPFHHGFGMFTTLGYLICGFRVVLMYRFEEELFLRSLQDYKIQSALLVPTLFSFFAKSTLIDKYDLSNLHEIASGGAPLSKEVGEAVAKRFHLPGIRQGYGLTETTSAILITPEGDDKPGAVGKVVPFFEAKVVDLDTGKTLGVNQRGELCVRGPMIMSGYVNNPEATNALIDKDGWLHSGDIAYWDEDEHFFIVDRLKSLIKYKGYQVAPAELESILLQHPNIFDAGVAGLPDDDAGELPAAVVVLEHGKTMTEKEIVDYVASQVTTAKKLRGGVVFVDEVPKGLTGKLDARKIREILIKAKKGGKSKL
A short description of a further data set: in vitro. Particulars: human, Caco-2, A-to-B Papp (cell batch quality control).
Setting [16] is: female, Sprague Dawley, iv, 5 mg/kg.

As usually defined, the IC50 is the point on the concentration scale where inhibition reaches its midpoint. Usually bioavailability stands for the share of a dose that reaches the circulation, judged against a reference dose that is usually intravenous. A high value points to good availability. Broadly, the Tmax is the time from dosing to the highest level. By Cmax is commonly meant the highest concentration seen after dosing. Usually MRT inf stands for the average time that molecules of a dose stay in the body. For orientation: half-life means the time in which the quantity being followed falls by half. A higher half-life goes with slow loss. Consider `O=C(O)c1cccc(-c2ccc(/C=C3\SC(=S)N(CCc4ccccc4)C3=O)o2)c1` [NBCoV2], for which the IC50 amounted to 0.0253 ± 0.0006 µM in [1]; 0.058 ± 0.0017 µM in data set [2]; 0.0193 ± 0.0011 µM in data set [3]; 0.111 ± 0.009 µM in data set [4]; 0.112 ± 0.007 µM in data set [5]; 0.077 µM in data set [6]. The IC50 is 0.783 ± 0.076 µM in data set [7]; 0.0228 to 0.058 µM in [8] (read-out: IC50 (range over the three cell lines)); greater than 2 µM in [10]; greater than 2 µM against β-lactamase; greater than 2 µM in the data set on Trypsin; greater than 2 µM in [12]. Besides, the “IC100 (range of IC100 values detected in the three cell lines)” value in [8] lay in the range of 0.3 to 1 µM. The same compound displayed a kd in [9] of 0.0251 s⁻¹. The compound further gave an IC100 in data set [11] greater than 10 µM. Further, the CLobs in [13] (setting [16]) is 0.00027 (mg/kg)/(ng/mL)/h. Also, the Vss_obs in data set [13] (setting [16]) was 0.0014 (mg/kg)/(ng/mL). Further, the AUC0-t in data set [13] (iv, 5 mg/kg) was 18,074.45 ng/mL ∗ h; in [13] (po, 10 mg/kg) it was 318.78 ng/mL ∗ h. For the same compound, the Vz/F_obs in data set [13] (po, 10 mg/kg) is given as 0.1759 (mg/kg)/(ng/mL). The compound further registered a bioavailability in “in vivo” (F% (bioavailability)) of 0.9%. Moreover, the C0 in the data set “in vivo” (iv, 5 mg/kg) was 1710 ng/mL. In addition, the Tmax is 2 h in the data set “in vivo” (iv, 5 mg/kg) and 4 h in “in vivo” (po, 10 mg/kg). Besides, the Cmax in “in vivo” (iv, 5 mg/kg) was determined as 2220 ng/mL; in the data set “in vivo” (po, 10 mg/kg) it was 30.1 ng/mL. In addition, the MRT inf is 5.09 h in “in vivo” (iv, 5 mg/kg) and 7.28 h in the data set “in vivo” (po, 10 mg/kg). Moreover, the half-life in the data set “in vivo” (iv, 5 mg/kg, t1/2) was 3.52 h; in “in vivo” (po, 10 mg/kg, t1/2), 3.96 h; in “in vivo” (t1/2 (range PO and IV)) it was 3.5 to 3.9 h.
Take `CCC(CC)COC(=O)[C@H](C)N[P@](=O)(OC[C@H]1O[C@@](C#N)(c2ccc3c(N)ncnn23)[C@H](O)[C@@H]1O)Oc1ccccc1` [remdesivir]: the antiviral potency was 0.115 µM in the data set on SARS-CoV-2 [14] and 1.28 µM in the data set on SARS-CoV-2 [15].
For the compound `Oc1ccc(/C=C/c2cc(O)cc(O)c2)cc1` [resveratrol], the “effect on FLuc activity” value at FLuc is reported as “completely blocked”.
In general, Papp A→B refers to how fast a substance crosses the layer from the apical side. The low end stands for slow passage, the high end for fast passage. `C[C@H]1O[C@@H](O[C@H]2[C@@H](O)C[C@H](O[C@H]3[C@@H](O)C[C@H](O[C@H]4CC[C@@]5(C)[C@H](CC[C@@H]6[C@@H]5C[C@@H](O)[C@]5(C)[C@@H](C7=CC(=O)OC7)CC[C@]65O)C4)O[C@@H]3C)O[C@@H]2C)C[C@H](O)[C@@H]1O` [Digoxin, reference compound] yielded a Papp A→B in the data set “in vitro” of 0.34 ×10⁻⁶ cm/s.
